Where two headings read alike, the source gives them in different places. Blank lines part the entries; values can stand above or below the compound they belong to.
Experiments:
[1] = tested on: NF-kB activity upon IL-1β stimulation (IL-1R) in THP1 NF-kB reporter cells; test: THP1 NF-kB reporter assay, IL-1β stimulation; assay type: cell-based, human; conditions: for LOG (IL1B): log of IL1B IC50; for Suppression of NF-kB signaling through the IL-1 receptor: result in words
IRAK4 [2] = molecular target: T1, IRAK4 (Homo sapiens, UniProt Q9NWZ3); test: Reaction Biology Kinase Assay service, kinase inhibition (IC50); assay type: biochemical; conditions: for LOG (IRAK4): log of IRAK4 IC50
T1 construct: purchased Reaction Biology (contract assay service)
T1 sequence (Q9NWZ3 1-460): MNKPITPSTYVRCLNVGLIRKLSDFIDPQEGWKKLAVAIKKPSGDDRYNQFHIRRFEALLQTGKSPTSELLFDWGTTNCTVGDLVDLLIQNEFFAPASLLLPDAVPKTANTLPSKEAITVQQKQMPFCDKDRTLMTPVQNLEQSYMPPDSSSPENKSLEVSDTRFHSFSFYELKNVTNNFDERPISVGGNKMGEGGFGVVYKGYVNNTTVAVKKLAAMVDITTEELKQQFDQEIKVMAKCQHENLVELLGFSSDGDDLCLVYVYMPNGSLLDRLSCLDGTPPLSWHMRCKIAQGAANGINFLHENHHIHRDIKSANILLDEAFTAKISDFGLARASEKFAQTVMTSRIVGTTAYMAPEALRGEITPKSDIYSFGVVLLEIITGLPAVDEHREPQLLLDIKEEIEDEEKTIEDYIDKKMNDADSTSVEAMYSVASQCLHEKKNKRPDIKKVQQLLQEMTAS

[3] = tested on: NF-kB activity upon TLR2 stimulation with PAM3CSK4 in THP1-Blue NF-kB SEAP reporter cells; test: THP1-Blue NF-kB SEAP reporter assay, TLR2 stimulation with PAM3CSK4; assay type: cell-based, human; conditions: for IC50: Homo sapiens, THP-1, unit nM, read-out: THP-1 NFkB PAM IC50; for IC50 / LOG (PAM): Table 1; for LOG (PAM): log of PAM IC50
IRAK1 [4] = molecular target: T2, IRAK1 (Homo sapiens, UniProt P51617); test: Reaction Biology Kinase Assay service, kinase inhibition (IC50); assay type: biochemical; conditions: for LOG (IRAK1): log of IRAK1 IC50
T2 construct: purchased Reaction Biology (contract assay service)

[5] = Survival in xenograft mice versus emavusertib and gilteritinib (FIG. 28); conditions: compared to emavusertib (CA-4948) and gilteritinib
[6] = Plasma protein binding, mouse; assay type: in vitro ADME
IRAK1 [7] = molecular target: T2, IRAK1; test: DiscoverX KINOMEscan Profiling Service, dissociation constant; assay type: binding
IRAK4 [8] = molecular target: T1, IRAK4; test: as above; assay type: binding
[9] = Microsomal stability (Mic t½), rat; assay type: in vitro ADME
[10] = tested on: MDS/AML cell lines and patient-derived samples; test: Clonogenic assay (colony formation in methylcellulose); assay type: cell-based, human; conditions: for Reduction in leukemia progenitor cell colony formation: 250 nM or 1 μM
[11] = Pharmacokinetic analysis, drug concentration after PO dosing; conditions: PO 30 mg/kg
[12] = tested on: AML(64519), AML(0169), and MDS(76960) cells; test: Patient-derived AML/MDS xenografts treated orally; assay type: in vivo, NSGS mice; conditions: PO daily, Compound 14 30 mg/kg or Compound 15 100 mg/kg
[13] = tested on: IRAK1 phosphorylation in MDS/AML cells; test: Immunoblotting for phospho-IRAK1; assay type: cell-based, human; conditions: THP1 and MDSL cells, 500 nM, 24 hours
[14] = Microsomal stability (Mic t½), mouse; assay type: in vitro ADME
PAMPA = assay type: in vitro ADME
[15] = Plasma protein binding, human; assay type: in vitro ADME
AML(1714) cells = test: Xenograft of AML(1714) cells pre-treated in vitro for 21 days; assay type: in vivo; conditions: AML(1714) pre-treated 500 nM 21 days, xenografted NSGS mice
Solubility = assay type: physicochemical
THP1 cells = assay type: cell-based, human; conditions: AML cells versus vehicle
[16] = Homo sapiens, THP-1, Table 1, unit nM, read-out: THP-1 NFkB IL1B IC50
[17] = Table 1, unit nM, read-out: Reaction Bio IRAK4 IC50
[18] = Table 1, unit nM, read-out: Reaction Bio IRAK1 IC50

T2 sequence (P51617 whole entry): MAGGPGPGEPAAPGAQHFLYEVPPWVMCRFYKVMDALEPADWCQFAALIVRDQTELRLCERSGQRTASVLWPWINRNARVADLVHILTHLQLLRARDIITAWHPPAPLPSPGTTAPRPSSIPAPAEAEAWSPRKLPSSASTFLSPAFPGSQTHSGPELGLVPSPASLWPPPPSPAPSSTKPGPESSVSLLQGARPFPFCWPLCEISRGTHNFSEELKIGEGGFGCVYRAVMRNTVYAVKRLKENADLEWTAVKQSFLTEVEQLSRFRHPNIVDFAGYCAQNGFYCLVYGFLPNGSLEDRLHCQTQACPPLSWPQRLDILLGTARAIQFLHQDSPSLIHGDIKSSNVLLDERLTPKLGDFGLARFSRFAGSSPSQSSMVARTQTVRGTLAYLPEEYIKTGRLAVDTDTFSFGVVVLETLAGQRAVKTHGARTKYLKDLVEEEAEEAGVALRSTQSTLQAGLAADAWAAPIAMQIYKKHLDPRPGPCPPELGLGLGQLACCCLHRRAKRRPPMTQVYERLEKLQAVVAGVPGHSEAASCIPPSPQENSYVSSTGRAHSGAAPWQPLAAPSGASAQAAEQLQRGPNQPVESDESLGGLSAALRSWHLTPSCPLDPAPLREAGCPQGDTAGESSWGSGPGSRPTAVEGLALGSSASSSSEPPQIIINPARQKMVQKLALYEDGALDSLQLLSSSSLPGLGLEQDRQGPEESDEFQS

IC50 [1, 16]: 25.9 nM
LOG (IRAK4) (IRAK4 [2]; Table 1): −0.30
IC50 (IRAK4 [2]; [17]): 0.5 nM
IC50 [3]: 14.2 nM
LOG (IRAK1) (IRAK1 [4]; Table 1): 1.32
IC50 (IRAK1 [4]; [18]): 21 nM
Compound: CC(O)(c1cn2c(-c3cccc(N[C@H]4CNCC[C@@H]4F)n3)cnc2cn1)C(F)(F)F (stereo partly drawn) [Compound 9]
LOG (IL1B) ([1]; Table 1): 1.41
LOG (PAM) [3]: 1.15

IC50 [1, 16]: 87.5 nM
LOG (IRAK4) (IRAK4 [2]; Table 1): 0.17
IC50 (IRAK4 [2]; [17]): 1.49 nM
IC50 [3]: 17.3 nM
LOG (IRAK1) (IRAK1 [4]; Table 1): 1.52
IC50 (IRAK1 [4]; [18]): 33 nM
Compound: CC(C)(O)c1cn2c(-c3nc(N[C@H]4CNCC[C@@H]4F)c(F)cc3F)cnc2cn1 [Compound 10]
LOG (IL1B) ([1]; Table 1): 1.94
LOG (PAM) [3]: 1.24

IC50 [1, 16]: 419 nM
LOG (IRAK4) (IRAK4 [2]; Table 1): 0.22
IC50 (IRAK4 [2]; [17]): 1.67 nM
IC50 [3]: 280 nM
LOG (IRAK1) (IRAK1 [4]; Table 1): 2.34
IC50 (IRAK1 [4]; [18]): 220 nM
Compound: COc1cc2ncc(-c3cccc(N[C@H]4CNCC[C@@H]4F)n3)n2nc1C1CC1 [Compound 11]
LOG (IL1B) ([1]; Table 1): 2.62
LOG (PAM) [3]: 2.45

IC50 [1, 16]: 15.4 nM
IC50 [3]: 13.6 nM
Compound: COc1cc2ncc(-c3cccc(N[C@H]4CNCC[C@@H]4F)n3)n2cc1C(C)(C)O [Compound 13]
LOG (IL1B) ([1]; Table 1): 1.19
LOG (PAM) [3]: 1.13

More lines, now with the values behind:

Compound: CN(C)c1ccc2ncc(-c3cccc(N[C@H]4CNC[C@@H]4F)n3)n2n1 [Compound 7]
IC50 [1, 16]: 15.1 nM
LOG (IL1B) ([1]; Table 1): 1.18
LOG (IRAK4) (IRAK4 [2]; Table 1): −0.20
IC50 (IRAK4 [2]; [17]): 0.637 nM
IC50 [3]: 3.3 nM
LOG (PAM) [3]: 0.52
LOG (IRAK1) (IRAK1 [4]; Table 1): 0.19
IC50 (IRAK1 [4]; [18]): 1.54 nM

Compound: COc1cc2ncc(-c3nc(N[C@@H]4CCCNC4)c(F)cc3F)n2nc1C1CC1 [Compound 8]
IC50 [1, 16]: 58.7 nM
LOG (IL1B) ([1]; Table 1): 1.77
LOG (IRAK4) (IRAK4 [2]; Table 1): 0.19
IC50 (IRAK4 [2]; [17]): 1.54 nM
Survival in xenograft mice [5]: enhanced survival
IC50 [3]: 62.9 nM
LOG (PAM) [3]: 1.80
LOG (IRAK1) (IRAK1 [4]; Table 1): 1.43
IC50 (IRAK1 [4]; [18]): 27.2 nM

Compound: COc1ccc2ncc(-c3cccc(N[C@@H]4CCCNC4)n3)n2c1 [Compound 14]
Plasma Prot Bind (% free - ms) [6]: 38.6 % free
Kd (IRAK1 [7]): 150 nM
Kd (IRAK4 [8]): 5 nM
IC50 ([1]; THP1 NF-kB reporter cells, read-out: IC50 vs. IL-1β (NF-kB activation)): 227 nM
Suppression of NF-kB signaling through the IL-1 receptor ([1]; THP1 NF-kB reporter cells): completely suppress
IC50 (IRAK4 [2]; functional biochemical assay, read-out: IRAK4 IC50): 5 nM
Tier 1 Mic t½ (r) [9]: >30 min
Colony formation after in vitro exposure ([10]; AML(1714) cells, 500 nM for 21 days, then 250 live cells plated, 10 days): only partially suppressed
Reduction in leukemia progenitor cell colony formation ([10]; MDS/AML cell lines): 60-75%
Reduction in leukemia progenitor cell colony formation ([10]; all MDS/AML cell lines and patient-derived samples): approximately 75%
Reduction in leukemia progenitor cell colony formation ([10]; patient-derived AML samples): 80-85%
Mean Free Drug Concentration ([11]; 0.25 h): 336 nM
Mean Total Drug Concentration ([11]; 0.25 h): 869 nM
Mean Free Drug Concentration ([11]; 0.5 h): 360 nM
Mean Total Drug Concentration ([11]; 0.5 h): 932 nM
Mean Free Drug Concentration ([11]; 1 h): 309 nM
Mean Total Drug Concentration ([11]; 1 h): 801 nM
Mean Free Drug Concentration ([11]; 2 h): 217 nM
Mean Total Drug Concentration ([11]; 2 h): 562 nM
Mean Free Drug Concentration ([11]; 4 h): 101 nM
Mean Total Drug Concentration ([11]; 4 h): 262 nM
Mean Free Drug Concentration ([11]; 8 h): 30 nM
Mean Total Drug Concentration ([11]; 8 h): 78 nM
Mean Free Drug Concentration ([11]; 24 h): 0 nM
Mean Total Drug Concentration ([11]; 24 h): 0 nM
Median survival ([12]; NSGS mice engrafted with AML(0169), vehicle 29 days): 33 days
Leukemic cell engraftment in the PB ([12]; AML(64519), AML(0169), MDS(76960) at day 40, 29, 48, versus vehicle): did not significantly suppress
Phosphorylation of IRAK1 [13]: did not affect phosphorylation of IRAK1
Tier 2 Mic t½ (m) [14]: N.D./25/N.D. min
PAMPA (PAMPA): 746 10^−6 cm/s
Plasma Prot Bind (% free - h) [15]: 26.5 % free
Suppression of TLR2-mediated activation of NF-kB ([3]; at 5 μM, THP1 cells): ~80%
Leukemic engraftment and AML development of pre-treated cells (AML(1714) cells): only partially suppressed
Solubility (Solubility): >48 mg/mL
IRAK4:IRAK1 potency ratio (IRAK1 [4]; calculated from the IRAK1 and IRAK4 IC50): 100
IC50 (IRAK1 [4]; functional biochemical assay, read-out: IRAK1 IC50): > 500 nM
Effect on genes of the IRAK1/4 AML signature (THP1 cells): unremarkable effect

Compound: C=CC(=O)Nc1cccc(C(=O)Nc2ccc(NC(=O)c3cccc(-c4ccn[nH]4)n3)cc2)c1 [JH-X-119-01]
Suppression of NF-kB signaling through the IL-1 receptor ([1]; THP1 NF-kB reporter cells): does not inhibit signaling through either receptor
Suppression of NF-kB signaling through TLR2 ([3]; THP1 NF-kB reporter cells, result in words): does not inhibit signaling through either receptor

Source: US20260034112A1, “MULTI-CYCLIC IRAK1 AND IRAK4 INHIBITING COMPOUNDS AND USES THEREOF” (CHILDREN'S HOSPITAL MEDICAL CENTER, priority 2022, published 2026)
